Reference: PubChem BioAssay (NCI)
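The compound was tested at five concentrations on cells cultured in 96-well plates, with a 48-hour exposure period. At the GI50, growth is halved. TGI marks complete inhibition of growth.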

What was measured:
Experiment in all cases: DTP human tumour cell line panel, 48 h
[1] = test system: T-47D breast
[2] = test system: HOP-62 NSCLC
[3] = test system: OVCAR-8 ovarian
[4] = test system: SR leukemia
[5] = test system: HCT-15 colon
[6] = test system: SF-539 CNS
[7] = test system: SNB-75 CNS
[8] = test system: SF-295 CNS
[9] = test system: U251 CNS
[10] = test system: RXF 393 renal
[11] = test system: KM12 colon
[12] = test system: BT-549 breast
[13] = test system: HL-60(TB) leukemia
[14] = test system: A549 NSCLC
[15] = test system: HS 578T breast
[16] = test system: EKVX NSCLC
[17] = test system: SW-620 colon
[18] = test system: UO-31 renal
[19] = test system: MCF7 breast
[20] = test system: MOLT-4 leukemia
[21] = test system: CCRF-CEM leukemia
[22] = test system: HCC-2998 colon
[23] = test system: NCI-H522 lung
[24] = test system: CAKI-1 renal
[25] = test system: ACHN renal
[26] = test system: OVCAR-3 ovarian
[27] = test system: SK-MEL-5 melanoma
[28] = test system: NCI-H460 lung
[29] = test system: HOP-92 NSCLC
[30] = test system: SK-MEL-28 melanoma
[31] = test system: MALME-3M melanoma
[32] = test system: DU-145 prostate
[33] = test system: K-562 leukemia
[34] = test system: 786-0 renal
[35] = test system: SNB-19 CNS
[36] = test system: NCI-H226 lung
[37] = test system: PC-3 prostate
[38] = test system: NCI/ADR-RES ovarian
[39] = test system: COLO 205 colon
[40] = test system: UACC-257 melanoma
[41] = test system: OVCAR-5 ovarian
[42] = test system: M14 melanoma
[43] = test system: OVCAR-4 ovarian
[44] = test system: SK-MEL-2 melanoma
[45] = test system: A498 renal
[46] = test system: SK-OV-3 ovarian
[47] = test system: TK-10 renal
[48] = test system: MDA-MB-435
[49] = test system: RPMI-8226 leukemia
[50] = test system: UACC-62 melanoma
[51] = test system: IGROV1 ovarian
[52] = test system: SF-268 CNS
[53] = test system: LOX IMVI melanoma
[54] = test system: NCI-H23 lung
[55] = test system: SN12C renal
[56] = test system: HCT-116 colon
[57] = test system: HT29 colon
[58] = test system: MDA-MB-231 breast

Compound: Cc1cccc2c3c(sc12)C(c1ccc(F)cc1)C(C#N)=C(/N=C/c1ccc(Cl)cc1)O3 (stereo unspecified)
- GI50 [1]: 583 nM
- TGI [1]: 53000 nM
- GI50 [2]: 552 nM
- TGI [2]: 15100 nM
- GI50 [3]: 487 nM
- TGI [3]: 4180 nM
- GI50 [4]: 317 nM
- TGI [4]: 13200 nM
- GI50 [5]: 366 nM
- TGI [5]: 10300 nM
- GI50 [6]: 277 nM
- TGI [6]: 827 nM
- GI50 [7]: 275 nM
- TGI [7]: 3630 nM
- GI50 [8]: 339 nM
- TGI [8]: 11600 nM
- GI50 [9]: 423 nM
- TGI [9]: 8760 nM
- GI50 [10]: 222 nM
- TGI [10]: 664 nM
- GI50 [11]: 417 nM
- TGI [11]: 13200 nM
- GI50 [12]: 907 nM
- TGI [12]: 3560 nM
- GI50 [13]: 339 nM
- TGI [13]: 971 nM
- GI50 [14]: 670 nM
- TGI [14]: > 100000 nM
- GI50 [15]: 426 nM
- TGI [15]: 10300 nM
- GI50 [16]: 1720 nM
- TGI [16]: 46100 nM
- GI50 [17]: 383 nM
- TGI [17]: 13100 nM
- GI50 [18]: 572 nM
- TGI [18]: 15300 nM
- GI50 [19]: 322 nM
- TGI [19]: 14000 nM
- GI50 [20]: 476 nM
- TGI [20]: 14200 nM
- GI50 [21]: 404 nM
- TGI [21]: > 37300 nM
- GI50 [22]: 414 nM
- TGI [22]: 2470 nM
- GI50 [23]: 91.3 nM
- TGI [23]: 372 nM
- GI50 [24]: 389 nM
- TGI [24]: 15200 nM
- GI50 [25]: 695 nM
- TGI [25]: 15500 nM
- GI50 [26]: 395 nM
- TGI [26]: 5390 nM
- GI50 [27]: 488 nM
- TGI [27]: 3290 nM
- GI50 [28]: 348 nM
- TGI [28]: 3560 nM
- GI50 [29]: 2190 nM
- TGI [29]: 15800 nM
- GI50 [30]: 1430 nM
- TGI [30]: 22600 nM
- GI50 [31]: 720 nM
- TGI [31]: 23200 nM
- GI50 [32]: 485 nM
- TGI [32]: 19300 nM
- GI50 [33]: 310 nM
- TGI [33]: 14200 nM
- GI50 [34]: 601 nM
- TGI [34]: 12500 nM
- GI50 [35]: 552 nM
- TGI [35]: 19000 nM
- GI50 [36]: 434 nM
- TGI [36]: 2960 nM
- GI50 [37]: 415 nM
- TGI [37]: 13500 nM
- GI50 [38]: 302 nM
- TGI [38]: 3490 nM
- GI50 [39]: 648 nM
- TGI [39]: 2510 nM
- GI50 [40]: 3810 nM
- TGI [40]: 32200 nM
- GI50 [41]: 516 nM
- TGI [41]: 15400 nM
- GI50 [42]: 310 nM
- TGI [42]: 8380 nM
- GI50 [43]: 2270 nM
- TGI [43]: 20100 nM
- GI50 [44]: 317 nM
- TGI [44]: 17800 nM
- GI50 [45]: 10600 nM
- TGI [45]: 42000 nM
- GI50 [46]: 521 nM
- TGI [46]: 41900 nM
- GI50 [47]: 20100 nM
- TGI [47]: 66200 nM
- GI50 [48]: 175 nM
- TGI [48]: 373 nM
- GI50 [49]: 421 nM
- TGI [49]: 7690 nM
- GI50 [50]: 354 nM
- TGI [50]: 13400 nM
- GI50 [51]: 632 nM
- TGI [51]: 19200 nM
- GI50 [52]: 1830 nM
- TGI [52]: 16200 nM
- GI50 [53]: 555 nM
- TGI [53]: 6300 nM
- GI50 [54]: 536 nM
- TGI [54]: 16400 nM
- GI50 [55]: 597 nM
- TGI [55]: 12200 nM
- GI50 [56]: 384 nM
- TGI [56]: 6300 nM
- GI50 [57]: 532 nM
- TGI [57]: 5040 nM
- GI50 [58]: 700 nM
- TGI [58]: 14800 nM
